# The source made the active and inactive calls. The calls are words filed in the database; no cut-off is given here.
# Assays:
# MCF7 = assay: Antiproliferative activity against human MCF7 cells after 48 hrs by MTT assay; format: functional, cell-based; details: MCF7, 48 h
# A549 [1] = assay: Antiproliferative activity against human A549 cells after 48 hrs by MTT assay; format: functional, cell-based; details: A549, 48 h
# HeLa = assay: Antiproliferative activity against human HeLa cells after 48 hrs by MTT assay; format: functional, cell-based
# DU-145 = assay: Antiproliferative activity against human DU145 cells after 48 hrs by MTT assay; format: functional, cell-based; details: DU-145, 48 h
# A549 [2] = assay: Anticancer activity against human A549 cells assessed as decrease in viable cells at cytotoxic IC50 level after 48 hrs by phase contrast microscopic analysis; format: functional, cell-based
# A549 [3] = assay: Induction of morphological change in human A549 cells assessed as cell detachment at cytotoxic IC50 level after 48 hrs by phase contrast microscopic analysis; format: functional, cell-based
# A549 [4] = assay: Induction of morphological change in human A549 cells assessed as nucleus shrinkage at cytotoxic IC50 level after 48 hrs by phase contrast microscopic analysis; format: functional, cell-based
# A549 [5] = assay: Inhibition of cell migration in human A549 cells at cytotoxic IC50 level after 24 to 48 hrs by wound healing assay; format: functional
# A549 [6] = assay: Induction of apoptosis in human A549 cells assessed as fragmented nuclei at cytotoxic IC50 level after 24 hrs by […] staining based confocal fluorescence microscopic analysis; format: functional, cell-based
# A549 [7] = assay: Induction of apoptosis in human A549 cells assessed as chromatin condensation at cytotoxic IC50 level after 24 hrs by […] staining based confocal fluorescence microscopic analysis; format: functional, cell-based
# A549 [8] = assay: Induction of apoptosis in human A549 cells assessed as horseshoe shaped nuclei at cytotoxic IC50 level after 24 hrs by […] staining based confocal fluorescence microscopic analysis; format: functional, cell-based
# A549 [9] = assay: Induction of apoptosis in human A549 cells assessed as disruption of mitochondrial membrane potential at cytotoxic IC50 level after 24 hrs by rhodamine-123 staining based spectrofluorometry relative to control; format: functional
# A549 [10] = assay: Induction of apoptosis in human A549 cells assessed as increase in intracellular reactive oxygen species level at cytotoxic IC50 level after 24 hrs by DCFH-DA staining based spectrofluorometry relative to control; format: functional
# A549 [11] = assay: Inhibition of cell migration in human A549 cells at cytotoxic IC50 level after 24 hrs by wound healing assay; format: functional
# A549 [12] = assay: Inhibition of cell migration in human A549 cells at cytotoxic IC50 level after 48 hrs by wound healing assay; format: functional
# A549 [13] = assay: Induction of cell cycle arrest in human A549 cells assessed as accumulation at G1 phase at 1 uM after 24 hrs by propidium iodide staining based flow cytometry (reference value: 72.27%); format: functional
# A549 [14] = assay: Induction of cell cycle arrest in human A549 cells assessed as accumulation at G1 phase at 2 uM after 24 hrs by propidium iodide staining based flow cytometry (reference value: 72.27%); format: functional
# A549 [15] = assay: Induction of cell cycle arrest in human A549 cells assessed as accumulation at S phase at 1 uM after 24 hrs by propidium iodide staining based flow cytometry (reference value: 4.96%); format: functional
# A549 [16] = assay: Induction of cell cycle arrest in human A549 cells assessed as accumulation at S phase at 2 uM after 24 hrs by propidium iodide staining based flow cytometry (reference value: 4.96%); format: functional
# A549 [17] = assay: Induction of cell cycle arrest in human A549 cells assessed as accumulation at G2/M phase at 1 uM after 24 hrs by propidium iodide staining based flow cytometry (reference value: 21.85%); format: functional
# A549 [18] = assay: Induction of cell cycle arrest in human A549 cells assessed as accumulation at G2/M phase at 2 uM after 24 hrs by propidium iodide staining based flow cytometry (reference value: 21.85%); format: functional
# A549 [19] = assay: Induction of apoptosis in human A549 cells assessed as extremely condensed chromatin at 0.5 uM after 24 hrs by acridine orange/ethidium bromide staining based fluorescence microscopic analysis; format: functional, cell-based
# A549 [20] = assay: Induction of apoptosis in human A549 cells assessed as cell membrane blebbing at 0.5 uM after 24 hrs by acridine orange/ethidium bromide staining based fluorescence microscopic analysis; format: functional
# A549 [21] = assay: Induction of apoptosis in human A549 cells assessed as destructive fragmentation of nuclei at 1 uM after 24 hrs by acridine orange/ethidium bromide staining based fluorescence microscopic analysis; format: functional, cell-based
# A549 [22] = assay: Induction of apoptosis in human A549 cells assessed as irregular distribution of chromatin at 1 uM after 24 hrs by acridine orange/ethidium bromide staining based fluorescence microscopic analysis; format: functional, cell-based
# A549 [23] = assay: Induction of apoptosis in human A549 cells assessed as extremely condensed chromatin at 2 uM after 24 hrs by acridine orange/ethidium bromide staining based fluorescence microscopic analysis; format: functional, cell-based
compound,measurement,setting,value
Cc1ccc2c(c1)C1(Cn3nncc3CO1)C(=O)N2Cc1ccccc1 (configuration not stated),IC50,MCF7,19.9 µM
same,IC50,A549 [1],14.5 µM
same,IC50,HeLa,18.2 µM
same,IC50,DU-145,19.7 µM
CCN1C(=O)C2(Cn3nncc3CO2)c2cc(F)ccc21 (configuration not stated),IC50,MCF7,> 50 µM
same,IC50,A549 [1],> 50 µM
same,IC50,HeLa,> 50 µM
same,IC50,DU-145,> 50 µM
CCN1C(=O)C2(Cn3nncc3CO2)c2cc(Br)ccc21 (configuration not stated),IC50,MCF7,> 50 µM
same,IC50,A549 [1],> 50 µM
same,IC50,HeLa,> 50 µM
same,IC50,DU-145,> 50 µM
CN1C(=O)C2(Cn3nncc3CO2)c2cc(F)ccc21 (configuration not stated),IC50,MCF7,> 50 µM
same,IC50,A549 [1],> 50 µM
same,IC50,HeLa,> 50 µM
same,IC50,DU-145,> 50 µM
Cc1ccc2c(c1)C1(Cn3nncc3CO1)C(=O)N2C (configuration not stated),IC50,MCF7,9.66 µM
same,IC50,A549 [1],7.41 µM
same,IC50,HeLa,10.2 µM
same,IC50,DU-145,24 µM
O=C1N(Cc2ccc(Br)cc2)c2ccc(F)cc2C12Cn1nncc1CO2 (configuration not stated),IC50,MCF7,8.31 µM
same,IC50,A549 [1],4.36 µM
same,IC50,HeLa,14.6 µM
same,IC50,DU-145,37.1 µM
CCN1C(=O)C2(Cn3nncc3CO2)c2cc(Cl)ccc21 (configuration not stated),IC50,MCF7,28.8 µM
same,IC50,A549 [1],15.8 µM
same,IC50,HeLa,> 50 µM
same,IC50,DU-145,23.4 µM
O=C1N(Cc2ccc(Br)cc2)c2ccc(Br)cc2C12Cn1nncc1CO2 (configuration not stated),IC50,MCF7,6.29 µM
same,IC50,A549 [1],4.26 µM
same,IC50,HeLa,12 µM
same,IC50,DU-145,8.14 µM
same,Activity,A549 [2],Active
same,Activity,A549 [3],Active
same,Activity,A549 [4],Active
same,inhibition (INH),A549 [5],38.1%
same,Activity,A549 [6],Active
same,Activity,A549 [7],Active
same,Activity,A549 [8],Active
same,Activity,A549 [9],Active
same,fold change (FC),A549 [10],2.3
O=C1N(Cc2ccccc2)c2ccc(Br)cc2C12Cn1nncc1CO2 (configuration not stated),IC50,MCF7,29.5 µM
same,IC50,A549 [1],14.8 µM
same,IC50,HeLa,31.5 µM
same,IC50,DU-145,49 µM
O=C1N(Cc2ccccc2)c2ccc(Cl)cc2C12Cn1nncc1CO2 (configuration not stated),IC50,MCF7,16.5 µM
same,IC50,A549 [1],12.9 µM
same,IC50,HeLa,15.1 µM
same,IC50,DU-145,33.3 µM
N#Cc1ccc(CN2C(=O)C3(Cn4nncc4CO3)c3cc(Cl)ccc32)cc1 (configuration not stated),IC50,MCF7,10.2 µM
same,IC50,A549 [1],7.94 µM
same,IC50,HeLa,22.3 µM
same,IC50,DU-145,28 µM
CN1C(=O)C2(Cn3nncc3CO2)c2ccccc21 (configuration not stated),IC50,MCF7,27.7 µM
same,IC50,A549 [1],20.1 µM
same,IC50,HeLa,48 µM
same,IC50,DU-145,> 50 µM
O=C1N(Cc2ccccc2)c2ccccc2C12Cn1nncc1CO2 (configuration not stated),IC50,MCF7,17.8 µM
same,IC50,A549 [1],10.5 µM
same,IC50,HeLa,> 50 µM
same,IC50,DU-145,> 50 µM
O=C1N(Cc2ccc(Br)cc2)c2ccc(Cl)cc2C12Cn1nncc1CO2 (configuration not stated),IC50,MCF7,31.6 µM
same,IC50,A549 [1],23.4 µM
same,IC50,HeLa,> 50 µM
same,IC50,DU-145,> 50 µM
COc1cccc2c1C(=O)c1c(O)c3c(c(O)c1C2=O)C[C@@](O)(C(=O)CO)C[C@@H]3O[C@H]1C[C@H](N)[C@H](O)[C@H](C)O1 [DOXORUBICIN],IC50,MCF7,1.05 µM
same,IC50,HeLa,1.26 µM
same,IC50,DU-145,1.91 µM
O=c1[nH]cc(F)c(=O)[nH]1 [FLUOROURACIL],IC50,A549 [1],7.24 µM
same,IC50,HeLa,8.32 µM
same,IC50,DU-145,6.07 µM
N#Cc1ccc(CN2C(=O)C3(Cn4nncc4CO3)c3ccccc32)cc1 (configuration not stated),IC50,MCF7,17.2 µM
same,IC50,A549 [1],12.6 µM
same,IC50,HeLa,21.4 µM
same,IC50,DU-145,20.4 µM
CN1C(=O)C2(Cn3nncc3CO2)c2cc(Br)ccc21 (configuration not stated),IC50,MCF7,> 50 µM
same,IC50,A549 [1],> 50 µM
same,IC50,HeLa,> 50 µM
same,IC50,DU-145,> 50 µM
CN1C(=O)C2(Cn3nncc3CO2)c2cc(Cl)ccc21 (configuration not stated),IC50,MCF7,35.5 µM
same,IC50,A549 [1],> 50 µM
same,IC50,HeLa,> 50 µM
same,IC50,DU-145,> 50 µM
O=C1N(Cc2ccc(Br)cc2)c2ccccc2C12Cn1nncc1CO2 (configuration not stated),IC50,MCF7,13.5 µM
same,IC50,A549 [1],14.5 µM
same,IC50,HeLa,15.5 µM
same,IC50,DU-145,26.3 µM
O=C1N(Cc2ccccc2)c2ccc(F)cc2C12Cn1nncc1CO2 (configuration not stated),IC50,MCF7,35.9 µM
same,IC50,A549 [1],19.9 µM
same,IC50,HeLa,> 50 µM
same,IC50,DU-145,27.5 µM
CCN1C(=O)C2(Cn3nncc3CO2)c2ccccc21 (configuration not stated),IC50,MCF7,8.87 µM
same,IC50,A549 [1],1.87 µM
same,IC50,HeLa,11.2 µM
same,IC50,DU-145,19.9 µM
same,Activity,A549 [2],Active
same,Activity,A549 [3],Active
same,Activity,A549 [4],Active
same,inhibition (INH),A549 [5],38.1%
same,inhibition (INH),A549 [11],54.9%
same,inhibition (INH),A549 [12],56.1%
same,Activity,A549 [13],60.21%
same,Activity,A549 [14],46.04%
same,Activity,A549 [15],15.63%
same,Activity,A549 [16],16.2%
same,Activity,A549 [17],19.77%
same,Activity,A549 [18],35.61%
same,Activity,A549 [6],Active
same,Activity,A549 [7],Active
same,Activity,A549 [8],Active
same,Activity,A549 [19],Active
same,Activity,A549 [20],Active
same,Activity,A549 [21],Active
same,Activity,A549 [22],Active
same,Activity,A549 [23],Active
same,Activity,A549 [9],48.2%
same,fold change (FC),A549 [10],2.6

# From ChEMBL document CHEMBL3616468, “Spirooxindole-derived morpholine-fused-1,2,3-triazoles: Design, synthesis, cytotoxicity and apoptosis inducing studies” (Eur J Med Chem, 2015)
